Measured values from patent US3960877A, “N-monosubstituted-2,3-pyridinedicarboxamides, and related compounds” (priority 1974, dated 1976).

Tests used:
Format in all cases: in vivo
Cucumber [1] = assay: Postemergence herbicidal activity, % control of plant growth; conditions: Cucumis sativus, post-emergence, 264 h, 8 lb/acre, about 11 days
Excerpt: (§1) By the term "postemergence" is meant that the compound is applied to the plant sought to be controlled after it has emerged from the soil surface. This term is also used to describe the application of herbicidally active compounds to soil surface in and around growing plants sought to be controlled for purposes of effecting root absorption by the undesirable plant species.
(§2) In the postemergence test the soil and developing plants were sprayed approximately 2 weeks after the seeds were sown. The compound was applied at the rate of 8 pounds per acre from about a 2 percent by weight solution of the test compound in acetone and/or alcohol. The postemergence herbicidal activity was measured in the same way as the preemergence activity; i.e. visual observation approximately 11 days after spraying, and expressed as the percent control of plant growth.
(§3) **Postemergence test: compound applied at rate of 8 lb/acre

Velvetleaf [2] = assay: as above; conditions: Abutilon theophrasti, post-emergence, 264 h, 8 lb/acre, about 11 days
Excerpt: as §1, §2, §3

Nutgrass [3] = assay: as above; conditions: post-emergence, 264 h, 8 lb/acre, about 11 days
Excerpt: as §1, §2, §3

Cheatgrass [4] = assay: as above; conditions: Bromus tectorum, post-emergence, 264 h, 8 lb/acre, about 11 days
Excerpt: as §1, §2, §3

Barnyard Grass [5] = assay: as above; conditions: Echinochloa crus-galli, post-emergence, 264 h, 8 lb/acre, about 11 days
Excerpt: as §1, §2, §3

Curled Dock [6] = assay: as above; conditions: post-emergence, 264 h, 8 lb/acre, about 11 days
Excerpt: as §1, §2, §3

Wild Oats [7] = assay: as above; conditions: Avena fatua, post-emergence, 264 h, 8 lb/acre, about 11 days
Excerpt: as §1, §2, §3

Yellow Rocket [8] = assay: as above; conditions: post-emergence, 264 h, 8 lb/acre, about 11 days
Excerpt: as §1, §2, §3

Snapbeans [9] = assay: as above; conditions: post-emergence, 264 h, 8 lb/acre, about 11 days
Excerpt: as §1, §2, §3

Corn [10] = assay: as above; conditions: Zea mays, post-emergence, 264 h, 8 lb/acre, about 11 days
Excerpt: as §1, §2, §3

Pigweed [11] = assay: as above; conditions: Amaranthus retroflexus, post-emergence, 264 h, 8 lb/acre, about 11 days
Excerpt: as §1, §2, §3

Johnsongrass [12] = assay: as above; conditions: Sorghum halepense, post-emergence, 264 h, 8 lb/acre, about 11 days
Excerpt: as §1, §2, §3

Crabgrass [13] = assay: as above; conditions: Digitaria sanguinalis, post-emergence, 264 h, 8 lb/acre, about 11 days
Excerpt: as §1, §2, §3

Foxtail [14] = assay: as above; conditions: Setaria, post-emergence, 264 h, 8 lb/acre, about 11 days
Excerpt: as §1, §2, §3

Alfalfa [15] = assay: as above; conditions: Medicago sativa, post-emergence, 264 h, 8 lb/acre, about 11 days
Excerpt: as §1, §2, §3

Lambsquarters [16] = assay: as above; conditions: Chenopodium album, post-emergence, 264 h, 8 lb/acre, about 11 days
Excerpt: as §1, §2, §3

Chickweed [17] = assay: as above; conditions: post-emergence, 264 h, 8 lb/acre, about 11 days
Excerpt: as §1, §2, §3

Cucumber [18] = assay: Preemergence herbicidal activity, % control of plant growth; conditions: Cucumis sativus, pre-emergence, 504 h, 16 lb/acre, about 3 weeks
Excerpt: (§4) By "preemergence" is meant that the compound is applied to the soil prior to emergence of the weed species sought to be controlled. This term, as used herein, also means the application of the herbicidal compounds falling within the scope of this disclosure to areas wherein useful or desirable plants are either growing or have been sown, but where the undesirable plants sought to be controlled have not as yet emerged.
(§5) In using the compound, seeds of the types of plants set forth in Table II were sown in fresh soil. In the preemergence test the soil was sprayed with a solution of the test compound immediately after the seeds were planted, and before any noticeable growth developed. The solution was about a 2 percent by weight solution of the compound in acetone and/or alcohol. The compound was applied at the rate of 16 pounds per acre of soil surface.
(§6) Approximately 3 weeks after spray application, the herbicidal activity of the compound was determined by visual observation of the treated area in comparison with untreated control areas. These observations are reported below in Table II wherein the average activity rating is reported as the percent control of plant growth.
(§7) *Preemergence test: compound applied at rate of 16 lb/acre

Velvetleaf [19] = assay: as above; conditions: Abutilon theophrasti, pre-emergence, 504 h, 16 lb/acre, about 3 weeks
Excerpt: as §4, §5, §6, §7

Nutgrass [20] = assay: as above; conditions: pre-emergence, 504 h, 16 lb/acre, about 3 weeks
Excerpt: as §4, §5, §6, §7

Cheatgrass [21] = assay: as above; conditions: Bromus tectorum, pre-emergence, 504 h, 16 lb/acre, about 3 weeks
Excerpt: as §4, §5, §6, §7

Barnyard Grass [22] = assay: as above; conditions: Echinochloa crus-galli, pre-emergence, 504 h; barnyard grass; 16 lb/acre; about 3 weeks
Excerpt: as §4, §5, §6, §7

Curled Dock [23] = assay: as above; conditions: pre-emergence, 504 h, 16 lb/acre, about 3 weeks
Excerpt: as §4, §5, §6, §7

Wild Oats [24] = assay: as above; conditions: Avena fatua, pre-emergence, 504 h, 16 lb/acre, about 3 weeks
Excerpt: as §4, §5, §6, §7

Yellow Rocket [25] = assay: as above; conditions: pre-emergence, 504 h, 16 lb/acre, about 3 weeks
Excerpt: as §4, §5, §6, §7

Snapbeans [26] = assay: as above; conditions: pre-emergence, 504 h, 16 lb/acre, about 3 weeks
Excerpt: as §4, §5, §6, §7

Corn [27] = assay: as above; conditions: Zea mays, pre-emergence, 504 h, 16 lb/acre, about 3 weeks
Excerpt: as §4, §5, §6, §7

Pigweed [28] = assay: as above; conditions: Amaranthus retroflexus, pre-emergence, 504 h, 16 lb/acre, about 3 weeks
Excerpt: as §4, §5, §6, §7

Johnsongrass [29] = assay: as above; conditions: Sorghum halepense, pre-emergence, 504 h, 16 lb/acre, about 3 weeks
Excerpt: as §4, §5, §6, §7

Crabgrass [30] = assay: as above; conditions: Digitaria sanguinalis, pre-emergence, 504 h, 16 lb/acre, about 3 weeks
Excerpt: as §4, §5, §6, §7

Foxtail [31] = assay: as above; conditions: Setaria, pre-emergence, 504 h, 16 lb/acre, about 3 weeks
Excerpt: as §4, §5, §6, §7

Alfalfa [32] = assay: as above; conditions: Medicago sativa, pre-emergence, 504 h, 16 lb/acre, about 3 weeks
Excerpt: as §4, §5, §6, §7

Lambsquarters [33] = assay: as above; conditions: Chenopodium album, pre-emergence, 504 h, 16 lb/acre, about 3 weeks
Excerpt: as §4, §5, §6, §7

Chickweed [34] = assay: as above; conditions: pre-emergence, 504 h, 16 lb/acre, about 3 weeks
Excerpt: as §4, §5, §6, §7

CCCCC(CC)Cn1c(=O)[nH]c2cccnc2c1=O (stereo not shown) [3-(2-ethylhexyl)pyrido[3,2-d]pyrimidine-2,4(1H,3H)-dione]
10%: pest or weed control at 8966.8 g/ha (Curled Dock [6]) | pest or weed control at 8966.8 g/ha (Crabgrass [13]) | pest or weed control at 17933.6 g/ha (Cucumber [18]) | pest or weed control at 17933.6 g/ha (Crabgrass [30])
90%: pest or weed control at 8966.8 g/ha (Yellow Rocket [8]) | pest or weed control at 17933.6 g/ha (Yellow Rocket [25])
0%: pest or weed control at 8966.8 g/ha (Velvetleaf [2]) | pest or weed control at 8966.8 g/ha (Nutgrass [3]) | pest or weed control at 8966.8 g/ha (Cheatgrass [4]) | pest or weed control at 8966.8 g/ha (Barnyard Grass [5]) | pest or weed control at 8966.8 g/ha (Wild Oats [7]) | pest or weed control at 8966.8 g/ha (Snapbeans [9]) | plant injury at 8966.8 g/ha (Corn [10]) | pest or weed control at 8966.8 g/ha (Johnsongrass [12]) | pest or weed control at 8966.8 g/ha (Foxtail [14]) | pest or weed control at 8966.8 g/ha (Alfalfa [15]) | pest or weed control at 17933.6 g/ha (Velvetleaf [19]) | pest or weed control at 17933.6 g/ha (Nutgrass [20]) | pest or weed control at 17933.6 g/ha (Cheatgrass [21]) | pest or weed control at 17933.6 g/ha (Barnyard Grass [22]) | pest or weed control at 17933.6 g/ha (Curled Dock [23]) | pest or weed control at 17933.6 g/ha (Wild Oats [24]) | pest or weed control at 17933.6 g/ha (Snapbeans [26]) | plant injury at 17933.6 g/ha (Corn [27]) | pest or weed control at 17933.6 g/ha (Pigweed [28]) | pest or weed control at 17933.6 g/ha (Johnsongrass [29]) | pest or weed control at 17933.6 g/ha (Foxtail [31]) | pest or weed control at 17933.6 g/ha (Alfalfa [32])
70%: pest or weed control at 17933.6 g/ha (Chickweed [34])
100%: pest or weed control at 8966.8 g/ha (Pigweed [11]) | pest or weed control at 8966.8 g/ha (Lambsquarters [16])
20%: pest or weed control at 8966.8 g/ha (Cucumber [1])
50%: pest or weed control at 8966.8 g/ha (Chickweed [17])
30%: pest or weed control at 17933.6 g/ha (Lambsquarters [33])
